This note sets out measurements from patent US20140274883A1, “NOVEL ANTIVIRAL COMPOUNDS FROM MARINE EXTRACTS” (priority 2008, published 2014).

This assay has as its system influenza A/Wyoming/03/2003 (H3N2). Nature of the assay: Plaque reduction assay in MDCK cell monolayers. The assay is classed as cell-based, influenza virus. Conditions: 5 μg/mL drug control, 72 h. A general note: Plaques are areas of infected cells; plaque reduction assays count them against a control.

On to `NC(=O)c1ncn([C@@H]2O[C@H](CO)[C@@H](O)[C@H]2O)n1` [Ribavirin, ribavirin], for which the plaque formation entry is listed as “completely inhibits the formation of plaques”.
